From PubChem BioAssay AID1259407 (Chemical Carcinogenesis Research Information System (CCRIS), 2018)
Calls of active or inactive are those of the source. How the calls were made is not given here.

System: CCRIS mutagenicity, Ames/micronucleus/aberration tests
Assay: CCRIS mutagenicity studies

`Nc1ccc(N)cc1` was tested, and the mutagenic call (Test System: AMES SALMONELLA TYPHIMURIUM, Strain/Indicator: TA2638, Metabolic Activation: NONE, Method: STANDARD PLATE) was “inactive; negative”, the mutagenic call (Test System: AMES SALMONELLA TYPHIMURIUM, Strain/Indicator: YG1024, Metabolic Activation: PLANT (PERSEA AMERICANA) S-117, Method: STANDARD PLATE) was “inactive; negative” and the mutagenic call (Test System: AMES SALMONELLA TYPHIMURIUM, Strain/Indicator: YG1024, Metabolic Activation: PLANT (ZEA MAYS) S-9, Method: STANDARD PLATE) was “inactive; negative”. The mutagenic call (Test System: AMES SALMONELLA TYPHIMURIUM, Strain/Indicator: YG1029, Metabolic Activation: PLANT (PERSEA AMERICANA) S-117, Method: STANDARD PLATE) was “inactive; negative”, the mutagenic call (Test System: AMES SALMONELLA TYPHIMURIUM, Strain/Indicator: YG1029, Metabolic Activation: PLANT (ZEA MAYS) S-9, Method: STANDARD PLATE) was “inactive; negative” and the mutagenic call (Test System: Ames Salmonella typhimurium, Strain/Indicator: TA98, Metabolic Activation: None, Method: Standard plate) was “inactive; negative”. The mutagenic call (Test System: Ames Salmonella typhimurium, Strain/Indicator: TA98, Metabolic Activation: Rat, Liver, S-9, Aroclor 1254 (10%), Method: Preincubation) was “active; positive”, the mutagenic call (Test System: Ames Salmonella typhimurium, Strain/Indicator: TA98, Metabolic Activation: Rat, Liver, S-9, Aroclor 1254 (10%), Method: Standard plate) was “active; positive” and the mutagenic call (Test System: Ames Salmonella typhimurium, Strain/Indicator: TA100, Metabolic Activation: None, Method: Preincubation) was “inactive; negative”. The mutagenic call (Test System: Ames Salmonella typhimurium, Strain/Indicator: TA100, Metabolic Activation: None, Method: Standard plate) was “inactive; negative”, the mutagenic call (Test System: Ames Salmonella typhimurium, Strain/Indicator: TA100, Metabolic Activation: Rat, Liver, S-9, Aroclor 1254 (10%), Method: Preincubation) was “inactive; negative” and the mutagenic call (Test System: Ames Salmonella typhimurium, Strain/Indicator: TA100, Metabolic Activation: Rat, Liver, S-9, Aroclor 1254 (10%), Method: Standard plate) was “inactive; negative”. The mutagenic call (Test System: Ames Salmonella typhimurium, Strain/Indicator: TA102, Metabolic Activation: None, Method: Preincubation) was “inactive; negative”, the mutagenic call (Test System: Ames Salmonella typhimurium, Strain/Indicator: TA102, Metabolic Activation: None, Method: Standard plate) was “inactive; negative” and the mutagenic call (Test System: Ames Salmonella typhimurium, Strain/Indicator: TA102, Metabolic Activation: Rat, Liver, S9, Aroclor 1254, Method: Preincubation) was “inactive; negative”. For the same molecule, the mutagenic call (Test System: Ames Salmonella typhimurium, Strain/Indicator: TA102, Metabolic Activation: Rat, Liver, S-9, Aroclor 1254 (10%), Method: Preincubation) was “inactive; negative”, the mutagenic call (Test System: Ames Salmonella typhimurium, Strain/Indicator: TA102, Metabolic Activation: Rat, Liver, S-9, Aroclor 1254 (10%), Method: Standard plate) was “inactive; negative” and the mutagenic call (Test System: Ames Salmonella typhimurium, Strain/Indicator: TA104, Metabolic Activation: None, Method: Preincubation) was “inactive; negative”. For the same molecule, the mutagenic call (Test System: Ames Salmonella typhimurium, Strain/Indicator: TA104, Metabolic Activation: Rat, Liver, S9, Aroclor 1254, Method: Preincubation) was “inactive; negative”, the mutagenic call (Test System: Ames Salmonella typhimurium, Strain/Indicator: TA1535, Metabolic Activation: None, Method: Preincubation) was “inactive; negative” and the mutagenic call (Test System: Ames Salmonella typhimurium, Strain/Indicator: TA1535, Metabolic Activation: None, Method: Standard plate) was “inactive; negative”. For the same molecule, the mutagenic call (Test System: Ames Salmonella typhimurium, Strain/Indicator: TA1535, Metabolic Activation: Rat, Liver, S-9, Aroclor 1254 (10%), Method: Preincubation) was “inactive; negative”, the mutagenic call (Test System: Ames Salmonella typhimurium, Strain/Indicator: TA1535, Metabolic Activation: Rat, Liver, S-9, Aroclor 1254 (10%), Method: Standard plate) was “inactive; negative” and the mutagenic call (Test System: Ames Salmonella typhimurium, Strain/Indicator: TA1537, Metabolic Activation: None, Method: Preincubation) was “inactive; negative”. The mutagenic call (Test System: Ames Salmonella typhimurium, Strain/Indicator: TA 1537, Metabolic Activation: None, Method: Standard plate) was “inactive; negative”, the mutagenic call (Test System: Ames Salmonella typhimurium, Strain/Indicator: TA1537, Metabolic Activation: Rat, Liver, S-9, Aroclor 1254 (10%), Method: Preincubation) was “inactive; negative” and the mutagenic call (Test System: Ames Salmonella typhimurium, Strain/Indicator: TA1537, Metabolic Activation: Rat, Liver, S-9, Aroclor 1254 (10%), Method: Standard plate) was “inactive; negative”. For the same molecule, the mutagenic call (Test System: CHINESE HAMSTER OVARY, Strain/Indicator: CHO-K1-BH4 (HGPRT)/6-THIOGUANINE, Metabolic Activation: NONE) was “inactive; negative”, the mutagenic call (Test System: CHINESE HAMSTER OVARY, Strain/Indicator: CHO-K1-BH4 (HGPRT)/6-THIOGUANINE, Metabolic Activation: S-9) was “inactive; negative” and the mutagenic call (Test System: E. COLI, Strain/Indicator: WP2 (PKM101), Metabolic Activation: NONE, Method: STANDARD PLATE) was “inactive; negative”. The mutagenic call (Test System: E. COLI, Strain/Indicator: WP2 UVRA (PKM101), Metabolic Activation: NONE, Method: STANDARD PLATE) was “inactive; negative”, the mutagenic call (Test System: E.COLI, Strain/Indicator: WP2UVRA, Metabolic Activation: RAT LIVER S-9, PHENOBARBITAL AND BETA-NAPHTHOFLAVONE, Method: PREINCUBATION) was “inactive; negative” and the mutagenic call (Test System: MOUSE LYMPHOMA, Strain/Indicator: L5178Y (TK+/TK-), Metabolic Activation: NONE, Method: SUSPENSION/PLATE) was “active; positive”. The mutagenic call (Test System: MOUSE LYMPHOMA, Strain/Indicator: L5178Y (TK+/TK-), Metabolic Activation: RAT, LIVER, S-9, AROCLOR 1254, Method: SUSPENSION/PLATE) was “active; positive”, the mutagenic call (Test System: Mouse lymphoma, Strain/Indicator: L5178Y (TK+/TK-), Metabolic Activation: None, Method: Suspension/plate) was “inactive; negative” and the mutagenic call (Test System: Mouse lymphoma, Strain/Indicator: L5178Y (TK+/TK-), Metabolic Activation: Rat, Liver, S-9, Aroclor 1254, Method: Suspension/plate) was “inactive; negative”.
